In ChEMBL document CHEMBL1138821, “Amino porphyrins as photoinhibitors of Gram-positive and -negative bacteria” (2004):
Values after ≈ are worked out from the molar mass of the structure shown. Values belong to the compound of their own block, whether it stands above or below them.

Legend:
Assay type in all cases: functional
[1] = system: Staphylococcus aureus; assay: Minimal bacterial concentration against Staphylococcus aureus was evaluated
[2] = system: Staphylococcus aureus; assay: Minimal inhibitory concentration against Staphylococcus aureus was evaluated
[3] = system: Staphylococcus aureus; assay: Minimal bacterial concentration against Staphylococcus aureus was evaluated; Range = 2-2.5 ug/mL
[4] = system: Escherichia coli; assay: Minimal bacterial concentration against Escherichia coli was evaluated; Range = 2-2.5 ug/mL
[5] = system: Staphylococcus aureus; assay: Minimal inhibitory concentration against Staphylococcus aureus was evaluated; Range = 1.5-2 ug/mL
[6] = system: Staphylococcus aureus; assay: Minimal inhibitory concentration against Staphylococcus aureus was evaluated; Range = 1.5-2.0 ug/mL
[7] = system: Staphylococcus aureus; assay: Minimal inhibitory concentration against Staphylococcus aureus was evaluated; Range = 1-1.5 ug/mL
[8] = system: Staphylococcus aureus; assay: Minimal inhibitory concentration against Staphylococcus aureus was evaluated; Range = 0.5-1.0 ug/mL
[9] = system: Staphylococcus aureus; assay: Minimal bacterial concentration against Staphylococcus aureus was evaluated; Range = 1-1.5 ug/mL
[10] = system: Staphylococcus aureus; assay: Minimal inhibitory concentration against Staphylococcus aureus was evaluated; Range = 0-0.5 ug/mL
[11] = system: Escherichia coli; assay: Minimal bacterial concentration against Escherichia coli was evaluated; Range = 1.5-2.0 ug/mL
[12] = system: Staphylococcus aureus; assay: Minimal bacterial concentration against Staphylococcus aureus was evaluated; Range = 1.0-1.5ug/mL

Compound: Cc1ccc(C2c3ccc([nH]3)C(c3ccc(C)cc3)c3ccc([nH]3)C(c3ccccc3N)c3ccc([nH]3)C(c3ccc(C)cc3)c3ccc2[nH]3)cc1 (configuration not stated)
MBC [1]: > 3 µg/mL
MIC [2]: > 2.5 µg/mL

Compound: Nc1ccc(C2c3ccc([nH]3)C(c3ccc(N)cc3)c3ccc([nH]3)C(c3ccc(O[C@@H]4O[C@@H](CO)[C@@H](O)[C@H](O)[C@@H]4O)cc3)c3ccc([nH]3)C(c3ccc(N)cc3)c3ccc2[nH]3)cc1 (some centres not stated)
MBC [1]: > 1.5 µg/mL
MIC [7]: 1.5 µg/mL (≈ 1.78 µM)

Compound: CC(N)C(=O)Nc1ccccc1C1c2ccc([nH]2)C(c2ccc(O[C@@H]3O[C@@H](CO)[C@@H](O)[C@H](O)[C@@H]3O)cc2)c2ccc([nH]2)C(c2ccc(O[C@@H]3O[C@@H](CO)[C@@H](O)[C@H](O)[C@@H]3O)cc2)c2ccc([nH]2)C(c2ccc(O[C@@H]3O[C@@H](CO)[C@@H](O)[C@H](O)[C@@H]3O)cc2)c2ccc1[nH]2 (some centres not stated)
MBC [1]: > 1.5 µg/mL
MIC [6]: 2 µg/mL (≈ 1.61 µM)

Compound: CC(N)C(=O)Nc1ccc(C2c3ccc([nH]3)C(c3ccc(O[C@@H]4O[C@@H](CO)[C@@H](O)[C@H](O)[C@@H]4O)cc3)c3ccc([nH]3)C(c3ccc(O[C@@H]4O[C@@H](CO)[C@@H](O)[C@H](O)[C@@H]4O)cc3)c3ccc([nH]3)C(c3ccc(O[C@@H]4O[C@@H](CO)[C@@H](O)[C@H](O)[C@@H]4O)cc3)c3ccc2[nH]3)cc1 (some centres not stated)
MBC [1]: > 1.5 µg/mL
MIC [7]: 1.5 µg/mL (≈ 1.21 µM)

Compound: CC(N)C(=O)Nc1ccc(C2c3ccc([nH]3)C(c3ccc(O[C@@H]4O[C@@H](CO)[C@@H](O)[C@H](O)[C@@H]4O)cc3)c3ccc([nH]3)C(c3ccc(NC(=O)C(C)N)cc3)c3ccc([nH]3)C(c3ccc(O[C@@H]4O[C@@H](CO)[C@@H](O)[C@H](O)[C@@H]4O)cc3)c3ccc2[nH]3)cc1 (some centres not stated)
MIC [8]: 1 µg/mL (≈ 0.87 µM)
MBC [9]: 1.5 µg/mL (≈ 1.31 µM)

Compound: CC(N)C(=O)Nc1ccc(C2c3ccc([nH]3)C(c3ccc(NC(=O)C(C)N)cc3)c3ccc([nH]3)C(c3ccccc3O[C@@H]3O[C@@H](CO)[C@@H](O)[C@H](O)[C@@H]3O)c3ccc([nH]3)C(c3ccc(NC(=O)C(C)N)cc3)c3ccc2[nH]3)cc1 (some centres not stated)
MBC [1]: > 1.5 µg/mL
MIC [5]: 2 µg/mL (≈ 1.89 µM)

Compound: Nc1ccccc1C1c2ccc([nH]2)C(c2ccc(O[C@@H]3O[C@@H](CO)[C@@H](O)[C@H](O)[C@@H]3O)cc2)c2ccc([nH]2)C(c2ccc(O[C@@H]3O[C@@H](CO)[C@@H](O)[C@H](O)[C@@H]3O)cc2)c2ccc([nH]2)C(c2ccc(O[C@@H]3O[C@@H](CO)[C@@H](O)[C@H](O)[C@@H]3O)cc2)c2ccc1[nH]2 (some centres not stated)
MIC [8]: 1 µg/mL (≈ 0.855 µM)
MBC [1]: > 1.5 µg/mL

Compound: Nc1ccc(C2c3ccc([nH]3)C(c3ccc(N)cc3)c3ccc([nH]3)C(c3ccc(O[C@@H]4O[C@@H](CO)[C@@H](O)[C@H](O)[C@@H]4O)cc3)c3ccc([nH]3)C(c3ccc(O[C@@H]4O[C@@H](CO)[C@@H](O)[C@H](O)[C@@H]4O)cc3)c3ccc2[nH]3)cc1 (some centres not stated)
MIC [2]: > 3 µg/mL

Compound: N=C(N)NCCCC(NC(=O)CCCCOc1ccccc1C1c2ccc([nH]2)C(c2ccc(O[C@@H]3O[C@@H](CO)[C@@H](O)[C@H](O)[C@@H]3O)cc2)c2ccc([nH]2)C(c2ccc(O[C@@H]3O[C@@H](CO)[C@@H](O)[C@H](O)[C@@H]3O)cc2)c2ccc([nH]2)C(c2ccc(O[C@@H]3O[C@@H](CO)[C@@H](O)[C@H](O)[C@@H]3O)cc2)c2ccc1[nH]2)C(=O)NCC(=O)NC(CC(=O)O)C(=O)O (some centres not stated)
MIC [8]: 1 µg/mL (≈ 0.625 µM)
MBC [9]: 1.5 µg/mL (≈ 0.938 µM)

Compound: N=C(N)NCCCC(NC(=O)CCCOc1ccc(C2c3ccc([nH]3)C(c3ccc(O[C@@H]4O[C@@H](CO)[C@@H](O)[C@H](O)[C@@H]4O)cc3)c3ccc([nH]3)C(c3ccc(O[C@@H]4O[C@@H](CO)[C@@H](O)[C@H](O)[C@@H]4O)cc3)c3ccc([nH]3)C(c3ccc(O[C@@H]4O[C@@H](CO)[C@@H](O)[C@H](O)[C@@H]4O)cc3)c3ccc2[nH]3)cc1)C(=O)NCC(=O)NC(CC(=O)O)C(=O)O (some centres not stated)
MIC [8]: 1 µg/mL (≈ 0.631 µM)
MBC [9]: 1.5 µg/mL (≈ 0.946 µM)

Compound: Cc1ccc(C2c3ccc([nH]3)C(c3ccc(C)cc3)c3ccc([nH]3)C(c3ccc(OCCCC(=O)NC(CCCN=C(N)N)C(=O)NCC(=O)NC(CC(=O)O)C(=O)O)cc3)c3ccc([nH]3)C(c3ccc(C)cc3)c3ccc2[nH]3)cc1 (configuration not stated)
MBC [1]: > 3 µg/mL
MIC [2]: > 2.5 µg/mL

Compound: Cc1ccc(C2c3ccc([nH]3)C(c3ccc(C)cc3)c3ccc([nH]3)C(c3ccccc3OCCCC(=O)NC(CCCN=C(N)N)C(=O)NCC(=O)NC(CC(=O)O)C(=O)O)c3ccc([nH]3)C(c3ccc(C)cc3)c3ccc2[nH]3)cc1 (configuration not stated)
MBC [1]: > 3 µg/mL
MIC [2]: > 2.5 µg/mL

Compound: Cc1ccc(C2c3ccc([nH]3)C(c3ccc(C)cc3)c3ccc([nH]3)C(c3ccc(N)cc3)c3ccc([nH]3)C(c3ccc(C)cc3)c3ccc2[nH]3)cc1 (configuration not stated)
MBC [1]: > 3 µg/mL
MIC [2]: > 2.5 µg/mL

Compound: Cc1ccc(C2c3ccc([nH]3)C(c3ccc(C)cc3)c3ccc([nH]3)C(c3ccccc3NC(=O)C(N)CO)c3ccc([nH]3)C(c3ccc(C)cc3)c3ccc2[nH]3)cc1 (configuration not stated)
MIC [2]: > 3 µg/mL

Compound: Cc1ccc(C2c3ccc([nH]3)C(c3ccc(C)cc3)c3ccc([nH]3)C(c3ccc(NC(=O)C(N)CO)cc3)c3ccc([nH]3)C(c3ccc(C)cc3)c3ccc2[nH]3)cc1 (configuration not stated)
MIC [2]: > 3 µg/mL

The next lines start with results.

MIC [5]: 2 µg/mL (≈ 2.08 µM)
Compound: C=CC1=C(C)/C2=C/c3[nH]c(c(C)c3C=C)/C=c3\[nH]/c(c(CCC(=O)NCCCCN(CCCN)CCCCN)c3C)=C\C3=NC(CC1=N2)C(C)=C3CCC(=O)NCCCCN(CCCN)CCCCN (configuration not stated)
MBC [3]: 2.5 µg/mL (≈ 2.6 µM)
MBC [4]: 2.5 µg/mL (≈ 2.6 µM)

MIC [6]: 2 µg/mL (≈ 2.37 µM)
Compound: Nc1ccc(C2c3ccc([nH]3)C(c3ccc(N)cc3)c3ccc([nH]3)C(c3ccccc3O[C@@H]3O[C@@H](CO)[C@@H](O)[C@H](O)[C@@H]3O)c3ccc([nH]3)C(c3ccc(N)cc3)c3ccc2[nH]3)cc1 (some centres not stated)
MBC [1]: > 1.5 µg/mL

MIC [8]: 1 µg/mL (≈ 0.87 µM)
Compound: CC(N)C(=O)Nc1ccc(C2c3ccc([nH]3)C(c3ccc(NC(=O)C(C)N)cc3)c3ccc([nH]3)C(c3ccc(O[C@@H]4O[C@@H](CO)[C@@H](O)[C@H](O)[C@@H]4O)cc3)c3ccc([nH]3)C(c3ccc(O[C@@H]4O[C@@H](CO)[C@@H](O)[C@H](O)[C@@H]4O)cc3)c3ccc2[nH]3)cc1 (some centres not stated)
MBC [9]: 1.5 µg/mL (≈ 1.31 µM)

MIC [7]: 1.5 µg/mL (≈ 1.42 µM)
Compound: CC(N)C(=O)Nc1ccc(C2c3ccc([nH]3)C(c3ccc(NC(=O)C(C)N)cc3)c3ccc([nH]3)C(c3ccc(O[C@@H]4O[C@@H](CO)[C@@H](O)[C@H](O)[C@@H]4O)cc3)c3ccc([nH]3)C(c3ccc(NC(=O)C(C)N)cc3)c3ccc2[nH]3)cc1 (some centres not stated)
MBC [1]: > 1.5 µg/mL

MIC [7]: 1.5 µg/mL (≈ 1.28 µM)
Compound: Nc1ccc(C2c3ccc([nH]3)C(c3ccc(O[C@@H]4O[C@@H](CO)[C@@H](O)[C@H](O)[C@@H]4O)cc3)c3ccc([nH]3)C(c3ccc(O[C@@H]4O[C@@H](CO)[C@@H](O)[C@H](O)[C@@H]4O)cc3)c3ccc([nH]3)C(c3ccc(O[C@@H]4O[C@@H](CO)[C@@H](O)[C@H](O)[C@@H]4O)cc3)c3ccc2[nH]3)cc1 (some centres not stated)
MBC [9]: 1.5 µg/mL (≈ 1.28 µM)

MIC [10]: 0.5 µg/mL (≈ 0.496 µM)
Compound: Nc1ccc(C2c3ccc([nH]3)C(c3ccc(O[C@@H]4O[C@@H](CO)[C@@H](O)[C@H](O)[C@@H]4O)cc3)c3ccc([nH]3)C(c3ccc(N)cc3)c3ccc([nH]3)C(c3ccc(O[C@@H]4O[C@@H](CO)[C@@H](O)[C@H](O)[C@@H]4O)cc3)c3ccc2[nH]3)cc1 (some centres not stated)
MBC [9]: 1.5 µg/mL (≈ 1.49 µM)

MIC [8]: 1 µg/mL (≈ 1.12 µM)
Compound: Cc1ccc(C2c3ccc([nH]3)C(c3ccc(C)cc3)c3ccc([nH]3)C(c3ccc(OCCCC(=O)N(CCCN)CCCCN)cc3)c3ccc([nH]3)C(c3ccc(C)cc3)c3ccc2[nH]3)cc1 (configuration not stated)
MBC [9]: 1.5 µg/mL (≈ 1.68 µM)

MIC [8]: 1 µg/mL (≈ 0.93 µM)
Compound: C=CC1=C(C)/C2=C/c3[nH]c(c(C)c3C=C)/C=c3\[nH]/c(c(CCC(=O)NCCCCN(CCCN)CCCCNCCCN)c3C)=C\C3=NC(CC1=N2)C(C)=C3CCC(=O)NCCCCN(CCCN)CCCCNCCCN (configuration not stated)
MBC [11]: 2 µg/mL (≈ 1.86 µM)
MBC [12]: 1.5 µg/mL (≈ 1.39 µM)

MIC [7]: 1.5 µg/mL (≈ 1.58 µM)
Compound: Cc1ccc(C2c3ccc([nH]3)C(c3ccc(C)cc3)c3ccc([nH]3)C(c3ccc(OCCCC(=O)N(CCCN)CCCCNCCCN)cc3)c3ccc([nH]3)C(c3ccc(C)cc3)c3ccc2[nH]3)cc1 (configuration not stated)
MBC [1]: > 1.5 µg/mL
